Data as given in patent US8420335B2, “Inhibition of GASC1” (Kobenhavns Universitet, priority 2006, dated 2013).
“Also recorded” adds a separate entry of the source. Where two headings read alike, the source gives them in different places. Each block holds one molecule with its values, some of them ahead of it.

Legend:
GASC1 = target: T1, GASC1 (Homo sapiens, UniProt Q9H3R0); assay: Demethylation assay: recombinant His-GASC1 with bulk histones or H3K9me3 peptide, western blotting; assay type: biochemical
T1 construct: Full-length amino-terminally hexahistidine-tagged human GASC1 baculovirus transfer vector; made in house; host or cells: baculovirus-infected insect cells (pAcHLT-A transfer vector, Bakpak6)
T1 sequence (Q9H3R0 1-1056): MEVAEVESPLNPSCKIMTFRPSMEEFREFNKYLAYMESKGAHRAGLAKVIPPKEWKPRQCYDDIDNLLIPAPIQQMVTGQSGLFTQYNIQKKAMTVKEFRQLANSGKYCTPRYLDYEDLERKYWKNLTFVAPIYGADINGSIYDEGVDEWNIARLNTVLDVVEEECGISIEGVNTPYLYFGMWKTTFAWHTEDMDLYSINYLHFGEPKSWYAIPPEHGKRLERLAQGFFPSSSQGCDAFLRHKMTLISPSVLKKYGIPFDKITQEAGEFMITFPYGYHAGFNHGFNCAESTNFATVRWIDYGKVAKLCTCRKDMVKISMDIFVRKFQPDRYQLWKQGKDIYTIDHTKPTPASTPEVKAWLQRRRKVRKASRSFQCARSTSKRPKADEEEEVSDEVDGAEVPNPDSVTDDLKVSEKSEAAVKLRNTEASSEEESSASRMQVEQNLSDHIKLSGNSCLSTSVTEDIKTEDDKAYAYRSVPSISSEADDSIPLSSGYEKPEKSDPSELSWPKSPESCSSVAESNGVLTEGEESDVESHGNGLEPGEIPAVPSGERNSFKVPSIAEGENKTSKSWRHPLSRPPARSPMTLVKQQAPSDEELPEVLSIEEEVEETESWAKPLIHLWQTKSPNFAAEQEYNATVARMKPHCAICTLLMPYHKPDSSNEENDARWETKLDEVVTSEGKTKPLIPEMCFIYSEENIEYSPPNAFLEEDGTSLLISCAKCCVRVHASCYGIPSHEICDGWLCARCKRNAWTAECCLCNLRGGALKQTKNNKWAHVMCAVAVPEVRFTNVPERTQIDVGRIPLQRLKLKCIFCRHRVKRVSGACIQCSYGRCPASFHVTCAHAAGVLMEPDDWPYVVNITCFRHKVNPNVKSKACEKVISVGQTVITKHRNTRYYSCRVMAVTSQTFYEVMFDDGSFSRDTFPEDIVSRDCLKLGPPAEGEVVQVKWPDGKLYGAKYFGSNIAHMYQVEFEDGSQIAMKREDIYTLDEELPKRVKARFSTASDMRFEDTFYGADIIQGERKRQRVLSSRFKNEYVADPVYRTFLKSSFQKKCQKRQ

KYSE-150 cells = assay: Overnight quercetin treatment of KYSE-150 cells: H3K9me3 by immunofluorescence and western blotting, growth, senescence; assay type: cell-based, human
KYSE-450 cells = assay: Quercetin treatment of KYSE-450 cells: H3K9me3, senescent-like phenotype, growth; assay type: cell-based, human; conditions: KYSE-450, low/moderate GASC1 level
Text: (§1) The biological effects of quercetin have previously been attributed to inhibition of topoisomerase I^43, modulation of protein and lipid kinase signalling pathways^44 and scavenging of reactive oxygen species^45, In light of the present findings it is tempting to speculate that the anti-cancer effect of quercetin might at least partially by explained by its inhibitory effect on GASC1 and other members of the JMJD2 subfamily.

WI38 = assay: Quercetin treatment of WI38 cells: H3K9me3, senescent-like phenotype, growth; assay type: cell-based; conditions: WI38, low/moderate GASC1 level
Text: as §1

U2OS = assay: Quercetin treatment of U2OS cells: H3K9me3, senescent-like phenotype, growth; assay type: cell-based, human; conditions: low/moderate GASC1 level
[1] = His-GASC1, bulk histones, co-factors FeSO4 and α-ketoglutarate, 30 min at 37° C., western blotting

SMILES: [Cl-].[Cl-].[Co+2] [CoCl2]
- inhibition of GASC1-mediated demethylation of H3K9me3 (GASC1): inhibit GASC1 demethylation activity; also recorded: able to inhibit the demethylation reaction effectively

- GASC1 demethylation of H3K9me3 in the presence of EDTA (GASC1; EDTA (chelating iron), 30 min at 37° C., western blotting): significantly reduced
SMILES: O=C(O)CN(CCN(CC(=O)O)CC(=O)O)CC(=O)O [EDTA]

SMILES: O=C(O)CNC(=O)C(=O)O [N-oxalylglycine]
- inhibition of GASC1-mediated demethylation of H3K9me3 (GASC1; [1]): able to inhibit the demethylation reaction effectively

SMILES: O=S(=O)([O-])[O-].[Ni+2] [NiSO4]
- inhibition of GASC1-mediated demethylation of H3K9me3 (GASC1; [1]): inhibit GASC1 demethylation activity; also recorded: able to inhibit the demethylation reaction effectively

SMILES: O=c1c(O)c(-c2ccc(O)c(O)c2)oc2cc(O)cc(O)c12 [quercetin]
- inhibition of GASC1-mediated demethylation of H3K9me3 (GASC1; [1]): able to effectively inhibit GASC1-mediated demethylation of H3K9me3 in vitro
- inhibition of GASC1-mediated demethylation of H3K9me3 (GASC1; His-GASC1, bulk histones, co-factors FeSO4 and α-ketoglutarate, 30 min at 37° C., western blotting, listed as quercetine): able to inhibit the demethylation reaction effectively
- growth rate (KYSE-150 cells; data not shown): marked decrease of growth rate
- phenotype (cell morphology, SAHFs, β-gal staining) (KYSE-150 cells; data not shown): senescent-like phenotype
- H3K9 trimethylation (KYSE-150 cells; immunofluorescence and western blotting): staggering increase in H3K9 trimethylation
- H3K9me3 increase, senescent-like phenotype and growth inhibition compared with KYSE-150 (KYSE-450 cells): did not display the same increase in H3K9me3 nor the same senescent-like phenotype and growth inhibition
- H3K9me3 increase, senescent-like phenotype and growth inhibition compared with KYSE-150 (WI38): did not display the same increase in H3K9me3 nor the same senescent-like phenotype and growth inhibition
- H3K9me3 increase, senescent-like phenotype and growth inhibition compared with KYSE-150 (U2OS): did not display the same increase in H3K9me3 nor the same senescent-like phenotype and growth inhibition
